Measurements from patent publication US6083920A, “Compositions for modulating intracellular inositol trisphosphate concentration” (priority 1996, dated 2000).

Key:
[1] = test system: InsP3 signalling in primary chick cortical neurons; test: Phosphoinositide hydrolysis assay (InsP3 signalling) in cultured primary cortical neurons; type: cell-based; settings: for inhibitory effect on InsP3 enhancement caused by sphingosine or metabotropic glutamate receptor agonists: cortical neurons
Experimental: Primary cultures of neurons were prepared from the telencephalon of white Leghorn chick embryos on the eighth day of their development (Rosenberg et al., J.Biol. Chem. 267:10601-10612, 1992). The neurons were seeded in 24-well plastic tissue culture plates that had been coated with L-polylysine. The density of the neurons was 10^5 cells per well, and they were cultured in Dulbecco's modified Eagle's medium/Ham's high glucose F-12 medium (1:1, vol:vol) containing 500 ng/L sodium selenite, 500 μg/L transferrin, and 165 pmole/L EGF. The cultures were maintained at 37° C. under 5% CO2 in air for 4 days, by which time the cells had differentiated into neurite-bearing cortical granulocytic neurons. These cultures of mature embryonic neurons were used for phosphoinositide hydrolysis assays (as described in Example 2).
Receptor-stimulated and basal unstimulated hydrolysis of phosphoinositides was measured by the following procedure. In order to label the cellular phosphoinositides metabolically, the primary cultures of chick cortical neurons (described in Example 1) were incubated overnight with 0.5 ml Dulbecco's modified Eagle's medium containing 1 μCi [^3 H]myo-inositol per well. The cells were then washed twice with 1 ml Dulbecco's phosphate-buffered saline (PBS) and 0.5 ml of PBS containing 4.5 g/L glucose was added. Sphingosine, psychosine, lysosulphatide, or lysosphingomyelin, prepared as the hydrochloride salt dissolved in water, were then added to produce the desired extracellular concentration in specific wells, […] The cells were then washed twice with 1 ml PBS, and pre-incubated for 15 minutes at 37° C. with 0.5 ml PBS containing 10 mM LiCl and the compound to be tested was added. […] The tubes were vortexed thoroughly, then centrifuged at 500×g for 5 minutes to separate the aqueous and chloroform phases. For each sample, a 1.5-ml aliquot of the upper (aqueous) phase was applied to a small column containing BioRad AG1X8 resin (formate form). Free [^3 H]inositol and [^3 H]glycerophosphoinositol were washed through the column with 5 ml of a solution containing 5 mM sodium borate and 60 mM sodium formate. The total phosphorylated [^3 H] inositol fraction was eluted from the column for radiometric scintillation spectrometry analysis with 3 ml 1.0 M ammonium formate/0.1 M formic acid;
(§1) In addition, a 0.5 ml aliquot of the lower (chloroform) phase of each sample was analyzed radiometrically by scintillation spectrometry in order to determine the quantity of lipid-bound [^3 H]myo-inositol. Estimation of phosphoinositide hydrolysis by phospholipase C is based upon the quantity of [^3 H]inositol phosphates produced, and is expressed as the percentage of the latter relative to total free and componential [^3 H]inositol (dpm ammonium formate+dpm chloroform fractions).
Cultured primary chick cortical neurons that were prelabeled with [^3 H]myo-inositol were examined for enhanced InsP3 signalling in response to various agonists including glutamate, aspartate, and the metabotropic […] receptor agonists ibotenate and quisqualate.

[2] = test system: bradykinin-stimulated phosphoinositide signalling in PC12 cells; test: Phosphoinositide hydrolysis assay (InsP3 production) in PC12 cells; type: cell-based, rat; settings: for sensitivity of PC12 cells to bradykinin: at relatively moderate levels
Text: PC12 cells, from a rat adrenal pheochromocytoma cell line, were used as a model of neurons from the peripheral nervous system. These cells were obtained from a common laboratory cell culture stock and grown in plastic culture flasks in Dulbecco's modified Eagle's medium (DMEM) supplemented with 5% heat-inactivated horse serum and 10% heat-inactivated fetal calf serum (PC12 cells are also available from the American Type Culture Collection under the Accession number CRL 1721). The cells were grown at 37° C. in 5% CO2 in air until a confluent monolayer formed. The cells were dispersed into 24-well plastic tissue culture plates at a density of 10^5 cells per well and used for the phosphoinositide hydrolysis assays (as described in EXAMPLE 2).
Receptor-stimulated and basal unstimulated hydrolysis of phosphoinositides was measured by the following procedure. In order to label the cellular phosphoinositides metabolically, the primary cultures of chick cortical neurons (described in Example 1) were incubated overnight with 0.5 ml Dulbecco's modified Eagle's medium containing 1 μCi [^3 H]myo-inositol per well. The cells were then washed twice with 1 ml Dulbecco's phosphate-buffered saline (PBS) and 0.5 ml of PBS containing 4.5 g/L glucose was added. Sphingosine, psychosine, lysosulphatide, or lysosphingomyelin, prepared as the hydrochloride salt dissolved in water, were then added to produce the desired extracellular concentration in specific wells, and the 24-well plates were swirled gently on a rotary shaker for 1 hr at 23° C. The cells were then washed twice with 1 ml PBS, and pre-incubated for 15 minutes at 37° C. with 0.5 ml PBS containing 10 mM LiCl and the compound to be tested was added. After 30 minutes, the experiment was terminated by adding 1 ml of ice-cold methanol to each well and transferring the material in each well to polypropylene tubes that contained 0.4 ml water and 1 ml chloroform. The tubes were vortexed thoroughly, then centrifuged at 500×g for 5 minutes to separate the aqueous and chloroform phases. For each sample, a 1.5-ml aliquot of the upper (aqueous) phase was applied to a small column containing BioRad AG1X8 resin (formate form). Free [^3 H]inositol and [^3 H]glycerophosphoinositol were washed through the column with 5 ml of a solution containing 5 mM sodium borate and 60 mM sodium formate. The total phosphorylated [^3 H] inositol fraction was eluted from the column for radiometric scintillation spectrometry analysis with 3 ml 1.0 M ammonium formate/0.1 M formic acid;
as §1
PC12 cells display a strong phospholipase C-linked metabotropic receptor response to bradykinin, an effective pain producing agonist.
The degree of InsP3 inhibition is a function of the log of the psychosine concentration for a fixed time of exposure (FIG. 4). Exposing PC12 cells to 50 μM exogenous psychosine for 30 minutes was sufficient to reduce a metabotropic response to 10 μM bradykinin to half maximum.

[3] = test system: calcium ion signalling in cortical neurons; test: Metabotropic receptor function: calcium ion signalling (fura 2) in intact cortical neurons; type: cell-based, chick; settings: neurons loaded to 150±20 pmoles per mg protein; 10 μM glutamate agonist 30 minutes
Experimental: Metabotropic receptor function was examined in intact neurons by assaying lysosphingolipid modulation of calcium ion signalling. Approximately 1×10^6 cortical neurons were cultured on rectangular L-polylysine-coated coverslips and loaded with lysocerebroside or lysosphingomyelin to a level of 150±20 pmoles per mg protein. The neurons were returned to complete Ham's high glucose medium/DMEM (1:1, vol:vol) and infiltrated with 5 μM fura 2/AM (Molecular Probes, Eugene, Oreg.). Fura 2 is a calcium chelator whose fluorescence absorbance shifts to shorter wavelength upon calcium ion binding is measurable in intact cells. A change in intraneuronal calcium ion concentration was monitored as a change in the fluorescence spectrum.
The neurons were exposed to 10 μM glutamate agonist (for example, ibotenate) for 30 minutes at 37° C. The coverslips were then transferred to quartz cuvettes in medium containing 250 μM sulfinpyrazone to prevent fura 2/AM diffusion. Fluorescence ratios were recorded in a Perkin-Elmer LS-5 Fluorescence Spectrometer thermostatted at 37° C. at excitation wavelengths of 340 and 380 nm, a nd emission measurement at 500 nm. Calcium ion signalling in agonist-stimulated neurons was 3.0±0.2 arbitrary units for ibotenate-exposed neurons.

Row | Structure (SMILES) | Ins-P-n, modulator Lsm:Sph ([1]; 20 μM Lysosphingomyelin + 20 μM Sphingosine, then 100 μM agonist 20 min, normalized to control = 1.00) | Ins-P-n, modulator Psy:Sph ([1]; 20 μM Psychosine + 20 μM Sphingosine, then 100 μM agonist 20 min, normalized to control = 1.00) | fold induction at 100 µM ([1]; Gallus gallus, Cortical neurone, 20 min, read-out: Ins-P-n (agonist alone)) | InsP3 production ([2]; PC12 cells) | sensitivity of PC12 cells to bradykinin [2] | inhibitory effect on InsP3 enhancement caused by sphingosine or metabotropic glutamate receptor agonists [1] | agonist-elicited calcium signalling in lysosphingolipid-loaded neurons [3] | IC50 ([2]; PC12 cells, 30 minutes exposure, 10 μM bradykinin, read-out: exogenous concentration reducing metabotropic response to bradykinin to half maximum) [µM] | basal, unstimulated level of InsP3 production ([2]; PC12 cells) | basal, unstimulated InsP3 level in cortical neurons [1]
1 | N[C@@H](Cn1oc(=O)[nH]c1=O)C(=O)O [Quisqualate, quisqualate] | 2.25 ± 0.15 | 3.30 ± 0.25 | 3 ± 0.05 |  |  |  |  |  |  | 
2 | CCCCCCCCCCCCC/C=C/[C@@H](O)[C@@H](N)COP(=O)([O-])OCC[N+](C)(C)C [lysosphingomyelin, sphingosyl phosphoryicholine] |  |  |  | strongly inhibit | can entirely block | blocked this enhancement | no calcium signalling measurably over controls |  |  | 
3 | CCCCCCCCCCCCC/C=C/[C@@H](O)[C@@H](N)CO[C@@H]1O[C@H](CO)[C@H](O)[C@H](O)[C@H]1O [psychosine, lysocerebroside] |  |  |  | strongly inhibit | can entirely block | blocked this enhancement | no calcium signalling measurably over controls | 50 |  | 
4 | CCCCCCCCCCCCC/C=C/[C@@H](O)[C@@H](N)CO [sphingosine] |  |  |  |  |  |  |  |  | tonically upregulated | tonically enhanced
